Measured values reported in ChEMBL document CHEMBL1201862, “PubChem BioAssay data set” (2004).
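Exposure lasted 48 hours, with cells grown in 96-well plates and compounds tested at five concentrations. GI50 is the concentration that inhibits growth by half.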 The source made the active and inactive calls. Cut-off read from the data, not from the text of the source: active = GI50 up to about 1.1 µM and inactive = higher.

Key:
Assay in all cases: DTP human tumour cell line panel, 48 h
[1] = system: M14
[2] = system: Malme-3M
[3] = system: IGROV-1
[4] = system: SNB-19
[5] = system: SK-MEL-2
[6] = system: CCRF-CEM
[7] = system: MDA-MB-231
[8] = system: EKVX
[9] = system: RXF 393
[10] = system: OVCAR-5
[11] = system: A549
[12] = system: UO-31
[13] = system: UACC-257
[14] = system: HCT-15
[15] = system: SF-295
[16] = system: HT-29
[17] = system: T47D
[18] = system: LOX IMVI
[19] = system: SN12C
[20] = system: SR

| Structure (SMILES) | GI50 [1] | GI50 [2] | GI50 [3] | GI50 [4] | GI50 [5] | GI50 [6] | GI50 [7] | GI50 [8] | GI50 [9] | GI50 [10] | GI50 [11] | GI50 [12] | GI50 [13] | GI50 [14] [µM] | GI50 [15] | GI50 [16] | GI50 [17] | GI50 [18] | GI50 [19] | GI50 [20] |
| --- | --- | --- | --- | --- | --- | --- | --- | --- | --- | --- | --- | --- | --- | --- | --- | --- | --- | --- | --- | --- |
| Oc1ccccc1CNCc1ccccc1O | > 100 µM (inactive) | > 100 µM (inactive) | > 100 µM (inactive) | > 100 µM (inactive) | > 100 µM (inactive) | 59.2 µM (inactive) | > 100 µM (inactive) | > 100 µM (inactive) | > 100 µM (inactive) | > 100 µM (inactive) | > 100 µM (inactive) | 90.2 µM (inactive) | > 100 µM (inactive) | > 100 | > 100 µM (inactive) | > 100 µM (inactive) | > 100 µM (inactive) | 65.2 µM (inactive) | > 100 µM (inactive) |  |
| COc1ccc(O[C@H](COCc2ccccc2)C[C@@H]2COC(C)(C)O2)cc1 | > 100 µM (inactive) | > 100 µM (inactive) | > 100 µM (inactive) | > 100 µM (inactive) | > 100 µM (inactive) | > 100 µM (inactive) | > 100 µM (inactive) | > 100 µM (inactive) | > 100 µM (inactive) | > 100 µM (inactive) | > 100 µM (inactive) | > 100 µM (inactive) | > 100 µM (inactive) | > 100 | > 100 µM (inactive) | > 100 µM (inactive) |  | > 100 µM (inactive) | > 100 µM (inactive) | > 100 µM (inactive) |
| CC(=O)O/C=C1/C[C@H]2[C@@H]3CCC4CC(C(C)=O)CC[C@]4(C)[C@H]3CC[C@]2(C)C1=O (stereo not given in full) |  | > 100 µM (inactive) | 88.9 µM (inactive) | 53.2 µM (inactive) | > 100 µM (inactive) | 29.1 µM (inactive) | > 100 µM (inactive) | > 100 µM (inactive) | > 100 µM (inactive) | > 100 µM (inactive) |  | > 100 µM (inactive) | > 100 µM (inactive) | 14.8 | 49.1 µM (inactive) | 51.4 µM (inactive) |  | 33.3 µM (inactive) | > 100 µM (inactive) | 44.1 µM (inactive) |
| COc1ccc(/C=C/c2sc3ccccc3[n+]2CCCCI)cc1OC | > 10 µM (inactive) | 3.01 µM (inactive) | > 10 µM (inactive) | > 10 µM (inactive) | 3.61 µM (inactive) | 3.49 µM (inactive) | > 10 µM (inactive) | > 10 µM (inactive) | > 10 µM (inactive) | > 10 µM (inactive) | > 10 µM (inactive) | > 10 µM (inactive) | 5.33 µM (inactive) | > 10 | > 10 µM (inactive) | > 10 µM (inactive) |  | > 10 µM (inactive) | > 10 µM (inactive) |  |
| COc1cc(C2SCC(=O)N2c2ccc(Cl)cc2)cc(OC)c1OC (stereo not given) | 0.266 µM (active) | > 100 µM (inactive) | 20.7 µM (inactive) | > 100 µM (inactive) | 8.51 µM (inactive) | 1.99 µM (inactive) | > 100 µM (inactive) | 3.15 µM (inactive) | 19.1 µM (inactive) | 0.252 µM (active) | > 100 µM (inactive) | 1.19 µM (inactive) | 22.6 µM (inactive) | 13.9 | 4.95 µM (inactive) |  |  | 1.03 µM (active) | > 39.5 µM (inactive) | 1.12 µM (active) |
| NCC(=O)NC1(c2cc3ccccc3s2)CCCCC1 | 17.6 µM (inactive) | 17.6 µM (inactive) | 61.1 µM (inactive) | > 100 µM (inactive) |  | 22 µM (inactive) |  | 19.9 µM (inactive) | 42.3 µM (inactive) | 40.5 µM (inactive) | 74.1 µM (inactive) | 45.9 µM (inactive) | 17.4 µM (inactive) | 61.1 | 59.7 µM (inactive) | 18.6 µM (inactive) | 40 µM (inactive) | 51.1 µM (inactive) | 79.1 µM (inactive) | < 0.01 µM (active) |
| O=c1c2cc(S(=O)(=O)Nc3c(Cl)cccc3Cl)ccc2ncn1NS(=O)(=O)c1ccc2ccccc2c1 | > 62.5 µM (inactive) | > 62.5 µM (inactive) | 8.67 µM (inactive) | 32.6 µM (inactive) | 20 µM (inactive) | 17.1 µM (inactive) | 42.4 µM (inactive) | 12.9 µM (inactive) |  | 12.6 µM (inactive) | > 62.5 µM (inactive) | 10.9 µM (inactive) | > 62.5 µM (inactive) | 39.6 | 23 µM (inactive) | 16.4 µM (inactive) |  | 25.4 µM (inactive) | > 62.5 µM (inactive) | 40.9 µM (inactive) |
| COc1ccc(/C=N/c2ccc(-c3nc4ccccc4s3)cc2)cc1OC | 35.7 µM (inactive) | 30 µM (inactive) | 25.1 µM (inactive) | 54.1 µM (inactive) | 22 µM (inactive) | 12.8 µM (inactive) |  | 32.9 µM (inactive) | 20.3 µM (inactive) | 36.5 µM (inactive) | 36.5 µM (inactive) | 27.5 µM (inactive) | 22.7 µM (inactive) | 31.8 | 25.4 µM (inactive) | 30.7 µM (inactive) | 17.4 µM (inactive) | 21.8 µM (inactive) | 25.7 µM (inactive) | 27.8 µM (inactive) |
| CCSc1nc(N2CCCC2)s[s+]1.[O-][Cl+3]([O-])([O-])[O-] | 25.4 µM (inactive) | 53.3 µM (inactive) | 4.07 µM (inactive) | > 100 µM (inactive) | 60.7 µM (inactive) | 0.764 µM (active) | 44.6 µM (inactive) | 67.3 µM (inactive) | 30.9 µM (inactive) | > 100 µM (inactive) | 18.9 µM (inactive) | 42.1 µM (inactive) | 36.9 µM (inactive) | 27.4 | 54.6 µM (inactive) | 0.582 µM (active) |  | 19.1 µM (inactive) | 46.1 µM (inactive) | 1.04 µM (active) |
| CCOC(=O)CCCc1cc(O)c2c(C)c3[nH]c4ccc(Cl)cc4c3c(C)c2n1 | 34.9 µM (inactive) | 24 µM (inactive) | 30.2 µM (inactive) | 23.7 µM (inactive) | 26.9 µM (inactive) | 42.5 µM (inactive) | 23.9 µM (inactive) | 79.1 µM (inactive) | 12.7 µM (inactive) | 82.6 µM (inactive) | 19.6 µM (inactive) | 20.1 µM (inactive) | 43.2 µM (inactive) | 31.5 | 28.8 µM (inactive) | 23.7 µM (inactive) |  | 38.7 µM (inactive) | 27.3 µM (inactive) | 44.4 µM (inactive) |
| O=C(O)C12C3CCCC1C2CC3 (stereo not given) | > 100 µM (inactive) | > 100 µM (inactive) | > 100 µM (inactive) | > 100 µM (inactive) | > 100 µM (inactive) | > 100 µM (inactive) |  | > 100 µM (inactive) | > 100 µM (inactive) | > 100 µM (inactive) | > 100 µM (inactive) | > 100 µM (inactive) | > 100 µM (inactive) | > 100 | > 100 µM (inactive) | > 100 µM (inactive) |  | > 100 µM (inactive) | > 100 µM (inactive) | > 100 µM (inactive) |
| O=C(/C=C/c1ccccc1)NC1C=Nc2ccc(Cl)cc2NC1=O (stereo not given) | 21.9 µM (inactive) | 26.9 µM (inactive) | 15 µM (inactive) | 29.1 µM (inactive) | 30.5 µM (inactive) | 3.52 µM (inactive) |  | 31.3 µM (inactive) | 16.2 µM (inactive) | 44.5 µM (inactive) | 28.2 µM (inactive) | 11.8 µM (inactive) | 26.4 µM (inactive) | 22.1 | 29 µM (inactive) | 30 µM (inactive) |  | 18.8 µM (inactive) | 24.8 µM (inactive) | 7.01 µM (inactive) |
| O=C(O)CC(NC(=O)CP(=O)(O)O)C(=O)O (stereo not given) | 383 µM (inactive) | 2360 µM (inactive) | 335 µM (inactive) | 103 µM (inactive) | 2470 µM (inactive) | 682 µM (inactive) | 1360 µM (inactive) | 2000 µM (inactive) | 249 µM (inactive) | 6120 µM (inactive) | 47.4 µM (inactive) | 690 µM (inactive) |  | 146 | 44.9 µM (inactive) | 185 µM (inactive) | 1290 µM (inactive) | 52.5 µM (inactive) | 724 µM (inactive) |  |
| CC(NNC(=O)c1ccncc1)c1ccc(F)cc1 (stereo not given) | 41.8 µM (inactive) | > 100 µM (inactive) | > 100 µM (inactive) | > 100 µM (inactive) | > 100 µM (inactive) | > 100 µM (inactive) | > 100 µM (inactive) | > 100 µM (inactive) | > 100 µM (inactive) | > 100 µM (inactive) | > 100 µM (inactive) | > 100 µM (inactive) | > 100 µM (inactive) | > 100 | > 100 µM (inactive) | > 100 µM (inactive) | > 100 µM (inactive) | > 100 µM (inactive) | > 100 µM (inactive) |  |
| Cc1ccc(S(=O)(=O)N[C@@H](Cc2ccccc2)C(=O)CCl)cc1 [TPCK] | 13.4 µM (inactive) | 14.6 µM (inactive) | 14.9 µM (inactive) | 16.9 µM (inactive) | 12.9 µM (inactive) | 3.7 µM (inactive) | 14.2 µM (inactive) | 17.2 µM (inactive) | 1.38 µM (inactive) | 16.6 µM (inactive) | 15.7 µM (inactive) | 14.1 µM (inactive) | 12.3 µM (inactive) | 16 | 18.9 µM (inactive) | 14.9 µM (inactive) |  | 7.08 µM (inactive) | 12.7 µM (inactive) |  |
